Test results: the NIST ThermoML archive (doi:10.1021/acs.jced.8b00975)
Numbers after ± are expanded uncertainties.

Conditions: Liquid, Vibrating tube method

CO [methanol]
mass density [kg/m3]
Conditions | 100 kPa | 5000 kPa | 10000 kPa | 15000 kPa | 20000 kPa | 25000 kPa | 30000 kPa | 35000 kPa
293.15 K | 791.15 ± 0.51 | 795.92 ± 0.52 | 800.41 ± 0.53 | 804.64 ± 0.54 | 808.67 ± 0.55 | 812.52 ± 0.56 | 816.25 ± 0.58 | 819.89 ± 0.59
303.15 K | 781.84 ± 0.51 | 786.9 ± 0.52 | 791.61 ± 0.53 | 796.01 ± 0.54 | 800.14 ± 0.56 | 804.05 ± 0.57 | 807.78 ± 0.58 | 811.37 ± 0.6
313.15 K | 772.35 ± 0.51 | 777.48 ± 0.52 | 782.37 ± 0.53 | 786.99 ± 0.55 | 791.38 ± 0.56 | 795.59 ± 0.57 | 799.69 ± 0.59 | 803.73 ± 0.61

CCCO [propan-1-ol]
mass density [kg/m3]
Conditions | 100 kPa | 5000 kPa | 10000 kPa | 15000 kPa | 20000 kPa | 25000 kPa | 30000 kPa | 35000 kPa
293.15 K | 803.17 ± 0.52 | 807.25 ± 0.53 | 811.02 ± 0.54 | 814.54 ± 0.55 | 817.87 ± 0.56 | 821.05 ± 0.57 | 824.15 ± 0.59 | 827.21 ± 0.6
303.15 K | 795.52 ± 0.52 | 799.83 ± 0.53 | 803.8 ± 0.54 | 807.49 ± 0.55 | 810.95 ± 0.56 | 814.23 ± 0.58 | 817.38 ± 0.59 | 820.48 ± 0.61
313.15 K | 787.3 ± 0.52 | 791.61 ± 0.53 | 795.67 ± 0.54 | 799.52 ± 0.55 | 803.19 ± 0.57 | 806.72 ± 0.58 | 810.15 ± 0.6 | 813.5 ± 0.61

CCCCCO [pentan-1-ol]
mass density [kg/m3]
Conditions | 100 kPa | 5000 kPa | 10000 kPa | 15000 kPa | 20000 kPa | 25000 kPa | 30000 kPa | 35000 kPa
293.15 K | 815.25 ± 0.62 | 818.83 ± 0.64 | 822.19 ± 0.66 | 825.37 ± 0.68 | 828.41 ± 0.7 | 831.36 ± 0.72 | 834.24 ± 0.74 | 837.11 ± 0.76
303.15 K | 808.05 ± 0.62 | 811.93 ± 0.64 | 815.5 ± 0.66 | 818.82 ± 0.68 | 821.92 ± 0.7 | 824.88 ± 0.72 | 827.74 ± 0.75 | 830.55 ± 0.77
313.15 K | 800.67 ± 0.62 | 804.61 ± 0.64 | 808.28 ± 0.66 | 811.75 ± 0.68 | 815.06 ± 0.71 | 818.26 ± 0.73 | 821.41 ± 0.75 | 824.56 ± 0.77
